From PubChem BioAssay (NCI)
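Five compound concentrations were applied to cells in 96-well plates for 48 hours; endpoints were derived by simple linear interpolation of the resulting dose-response curve. Abbreviation: GI50, concentration required for 50% inhibition of growth. TGI is the concentration that stops growth completely.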

Key:
Assay in all cases: NCI tumour cell line growth inhibition, 48 h; in the data active means GI50 below about 0.43 µM; inactive means the rest
[1] = system: NCI-H460 lung
[2] = system: SK-MEL-2 melanoma
[3] = system: MALME-3M melanoma
[4] = system: MDA-MB-231 breast
[5] = system: HT29 colon
[6] = system: MOLT-4 leukemia
[7] = system: OVCAR-8 ovarian
[8] = system: KM12 colon
[9] = system: OVCAR-3 ovarian
[10] = system: NCI-H23 lung
[11] = system: K-562 leukemia
[12] = system: EKVX NSCLC
[13] = system: CCRF-CEM leukemia
[14] = system: SW-620 colon
[15] = system: SK-MEL-5 melanoma
[16] = system: CAKI-1 renal
[17] = system: HCC-2998 colon
[18] = system: NCI-H226 lung
[19] = system: BT-549 breast
[20] = system: MDA-MB-468 breast
[21] = system: IGROV1 ovarian
[22] = system: PC-3 prostate
[23] = system: UO-31 renal
[24] = system: HOP-62 NSCLC
[25] = system: LOX IMVI melanoma
[26] = system: M14 melanoma
[27] = system: MDA-MB-435
[28] = system: U251 CNS
[29] = system: SN12C renal
[30] = system: SF-539 CNS
[31] = system: MCF7 breast
[32] = system: SK-OV-3 ovarian
[33] = system: A549 NSCLC
[34] = system: NCI/ADR-RES ovarian
[35] = system: A498 renal
[36] = system: SR leukemia
[37] = system: UACC-62 melanoma
[38] = system: HCT-116 colon
[39] = system: SF-295 CNS
[40] = system: COLO 205 colon
[41] = system: RPMI-8226 leukemia
[42] = system: UACC-257 melanoma
[43] = system: OVCAR-4 ovarian
[44] = system: RXF 393 renal
[45] = system: HL-60(TB) leukemia
[46] = system: ACHN renal
[47] = system: TK-10 renal
[48] = system: T-47D breast
[49] = system: HCT-15 colon
[50] = system: SNB-75 CNS
[51] = system: OVCAR-5 ovarian
[52] = system: NCI-H522 lung
[53] = system: 786-0 renal
[54] = system: SNB-19 CNS
[55] = system: DU-145 prostate
[56] = system: SF-268 CNS
[57] = system: HS 578T breast
[58] = system: HOP-92 NSCLC
[59] = system: SK-MEL-28 melanoma

O=C(N=Nc1c(O)[nH]c2ccc(Br)cc12)c1ccc2nc(-c3ccc(Cl)cc3)[nH]c2c1
> 38 µM: TGI [1] | TGI [2] | TGI [3] | TGI [4] | TGI [5] | TGI [6] | TGI [7] | TGI [8] | TGI [9] | TGI [10] | TGI [11] | TGI [12] | TGI [13] | TGI [14] | TGI [15] | TGI [16] | TGI [17] | TGI [18] | TGI [19] | TGI [21] | TGI [22] | TGI [23] | TGI [24] | TGI [25] | TGI [26] | TGI [27] | TGI [28] | TGI [29] | TGI [30] | TGI [31] | TGI [32] | TGI [33] | TGI [34] | TGI [35] | TGI [36] | TGI [37] | TGI [38] | TGI [39] | TGI [40] | TGI [41] | TGI [42] | TGI [43] | TGI [44] | TGI [45] | TGI [46] | TGI [47] | TGI [48] | TGI [49] | TGI [50] | TGI [51] | TGI [52] | TGI [53] | TGI [54] | TGI [55] | TGI [56] | TGI [57] | TGI [58] | TGI [59]
37.9 µM: TGI [20]
inactive: GI50 [1] 21.7 µM | GI50 [2] > 38 µM | GI50 [3] > 38 µM | GI50 [4] > 38 µM | GI50 [5] 15.2 µM | GI50 [6] 11.1 µM | GI50 [7] 29.7 µM | GI50 [8] > 38 µM | GI50 [9] > 38 µM | GI50 [10] 34 µM | GI50 [11] 16.8 µM | GI50 [12] > 38 µM | GI50 [13] 8.77 µM | GI50 [14] 14.5 µM | GI50 [15] > 38 µM | GI50 [16] > 38 µM | GI50 [17] 32.6 µM | GI50 [18] > 38 µM | GI50 [19] > 38 µM | GI50 [20] 8.03 µM | GI50 [21] > 38 µM | GI50 [22] > 38 µM | GI50 [23] > 38 µM | GI50 [24] > 38 µM | GI50 [25] 11.3 µM | GI50 [26] > 38 µM | GI50 [27] 29.6 µM | GI50 [28] 19.9 µM | GI50 [29] > 38 µM | GI50 [30] > 38 µM | GI50 [31] 8.14 µM | GI50 [32] > 38 µM | GI50 [33] > 38 µM | GI50 [34] > 38 µM | GI50 [35] > 38 µM | GI50 [36] > 38 µM | GI50 [37] > 38 µM | GI50 [38] 15.2 µM | GI50 [39] > 38 µM | GI50 [40] 26.2 µM | GI50 [41] > 38 µM | GI50 [42] > 38 µM | GI50 [43] 12 µM | GI50 [44] > 38 µM | GI50 [45] > 38 µM | GI50 [46] > 38 µM | GI50 [47] > 38 µM | GI50 [48] 11.8 µM | GI50 [49] > 38 µM | GI50 [50] 8.44 µM | GI50 [51] > 38 µM | GI50 [52] > 38 µM | GI50 [53] 29.6 µM | GI50 [54] 17.1 µM | GI50 [55] 29.6 µM | GI50 [56] 10.8 µM | GI50 [57] > 38 µM | GI50 [58] > 38 µM | GI50 [59] > 38 µM
